The values below come from patent US20240368209A1, “GEMCITABINE ANTICANCER DERIVATIVE AND ANTICANCER PHARMACEUTICAL USE” (ASCENTAWITS PHARMACEUTICALS, LTD., priority 2021, published 2024).

Each structure is given as a SMILES string. Read-outs that look alike come from different tables or passages of the source.

For series [1], the system named is H460 cell line with high expression of AKR1C3 enzyme. The note with it: cited from earlier work.
The subject of another series is H460 cancer cells. Kind of series: Inhibition of H460 cancer cells in the presence or absence of AKR1C3 inhibitor AST-3021 (section 2.1). Format: cell-based, human. The conditions noted are these: for IC50: Homo sapiens. The protocol: The experimental scheme was as follows: • 1) H460 cell suspension was added to a 96-well plate with 100 μL per well at a cell density of 2000/well. • 2) Cells were incubated in an incubator of 37° C., 5% CO2 overnight. • 3) Compound treatment
Combined administration: 24 hours after cell plating, 98 μL of growth medium per well was added. 1 μL of AST-3021 was added to each well (final concentration 3 μM), and the plate was shaken gently to ensure even mixing, and then placed into an incubator; after 2 hours, 1 μL of the test compound at different concentrations was added, and the plate was shaken gently to ensure even mixing, and then placed into an incubator of 37° C., 5% CO2.
Administration of the drug alone: 24 hours after cell plating, 99 μL of growth medium per well was added.
In order to further verify that the compound was activated specifically by human AKR1C3 (aldosterone reductase family 1 member C3), the compound was added following the pretreatment of cells with the specific AKR1C3 enzyme inhibitor AST-3021 (3 μM), and the effect of the presence of AST-3021 on the proliferation of H460 cancer cells was tested
IC50 data of inhibitory effect of the compounds gemcitabine and H11 on H460 cancer cells in the presence or absence of the AKR1C3 inhibitor AST-3021 is shown in Table 2 and Table 3.

For series [2] the following is noted: intraperitoneal injection, once every 3 days, for four consecutive doses; literature; cited from earlier work.
Series [3] deals with HuPrime pancreatic cancer xenograft model PA1222. Kind of series: In vivo pharmacodynamic experiment in HuPrime pancreatic cancer PA1222 PDX model. The conditions noted are these: for Tumor volume (mm^3) (x ± S): Group 2, 80 mg/kg i.p.
Series [4] in a line: Plasma stability in rat plasma. The note with it: for Remaining percentage (%): rat plasma. The protocol: 1 mM working solution of the test compound was prepared in DMSO. 1 mM working solution of propantheline was prepared in acetonitrile. 1 mM working solution of lovastatin (mevinolin) was prepared in DMSO. Propantheline was used as a positive control for human, monkey, dog, and mouse plasma stability tests. Lovastatin was a positive control for rat plasma stability test.
• A. 398 μL of plasma per well was added to the culture plate, and the plate was preheated at 37° C. for 15 minutes. • B. After preincubation, 2 μL of working solution (test solution or control solution) was added to the 398 μL plasma mentioned above, resulting in a final concentration of 5 μM. The final concentration of organic solvents was 0.5%. The test was conducted in duplicate. • C. The reaction sample was incubated at 37° C. • D. 50 μL was extracted from the reaction sample at 0, 15, 30, 60, and 120 minutes, respectively. […] 100 μL of supernatant was taken and transferred to a new plate. The supernatant was diluted with ultrapure water according to the LC-MS signal response and peak shape.
Samples were analyzed with LC-MS/MS. All calculations were conducted using Microsoft Excel. The peak area ratio was determined from the extracted ion chromatogram. • (1) The percentage of the remaining compound at each time point was calculated with the following formula: […]
wherein the slope value k was determined by linear regression of the natural logarithm of the remaining percentage of the parent drug vs. incubation time curve.

A short description of series [5]: Plasma stability in human plasma. Format: in vitro ADME. As to the method:
(§1) The final concentration of organic solvents was 0.5%. The test was conducted in duplicate. • C.
(§2) Samples were analyzed with LC-MS/MS. All calculations were conducted using Microsoft Excel.

A short description of series [6]: Plasma stability in monkey plasma. In kind it is in vitro ADME. As to the method:
as §1, §2

Series [7] can be described thus: Plasma stability in dog plasma. Format: in vitro ADME. As to the method:
as §1, §2

Series [8] in a line: Plasma stability in mouse plasma. In kind it is in vitro ADME. The protocol: as §1, §2
Setting [9] is: Group 2, 80 mg/kg i.p. Q3D×4, Day 32.

For `CCN(CCCCBr)P(=O)(OCc1ccc([N+](=O)[O-])c(Oc2ccc(-c3ccccc3)cc2)c1)OCC1OC(n2ccc(N)nc2=O)C(F)(F)C1O` (stereo not drawn) [TH3057], the IC50 in [1] (with addition of AKR1C3 enzyme inhibitor) is 5000 nM; in [1] (without AKR1C3 enzyme inhibitor), 200 nM.

Consider `Nc1ccn([C@@H]2O[C@H](CO)[C@@H](O)C2(F)F)c(=O)n1` [gemcitabine], for which, in the series with H460 cancer cells (H460), the Specific activation ratio was 1.08. For the same molecule, the IC50 with H460 cancer cells (NCI-H460, 72 h, H460, 72 hours, read-out: IC50 (nmol/L) AST-3021 not added) amounted to 13.2 nmol/L; with H460 cancer cells (NCI-H460, H460, AST-3021 3 μM, read-out: IC50 (nmol/L) AST-3021 added), 14.2 nmol/L. The MTD in series [2] is listed as 120 mg/kg. In [3] (setting [9]), the “Relative tumor volume (x ± S)” value came to 0.06 ± 0.04. Moreover, the “T/C (%)” value in series [3] (setting [9]) is reported as 0.97%. In [3] (setting [9]), the “TGI (%)” value was determined as 99.03%. Also, the “complete tumor inhibition rate” value in series [3] (setting [9]) is recorded as 60%. Moreover, in series [3] (Group 2, 80 mg/kg i.p. Q3D×4, Day 32, mean ± standard error), the “Tumor volume (x ± S)” value was determined as 6.79 ± 4.33. In addition, the “Tumor volume (mm^3) (x ± S)” value in series [3] (day 0) was found to be 102.95 mm^3; in series [3] (day 4), 104.07 mm^3; in series [3] (day 7) it was 74.43 mm^3; in [3] (day 11), 38.92 mm^3; in series [3] (day 14), 24.66 mm^3; in series [3] (day 18), 17.66 mm^3. The “Tumor volume (mm^3) (x ± S)” value in series [3] (day 21) turned out to be 12.13 mm^3; in series [3] (day 25), 10.23 mm^3; in [3] (day 28) it was 7.97 mm^3; in series [3] (day 32) it was 6.79 mm^3.

Consider `CC[C@H](C)C(=O)O[C@H]1C[C@@H](C)C=C2C=C[C@H](C)[C@H](CC[C@@H]3C[C@@H](O)CC(=O)O3)[C@H]21` [lovastatin, reference compound], for which the “Remaining percentage (%)” value is recorded as 100.00% in series [4] (0 min, 5 μM, 37° C.); 5.27% in [4] (15 min); 0.52% in [4] (30 min); 0.45% in [4] (60 min); 0.34% in [4] (120 min). Moreover, the “t1/2” value in [4] (rat, plasma) is 3.53 min.

With `CC(C)[N+](C)(CCOC(=O)C1c2ccccc2Oc2ccccc21)C(C)C` [propantheline, reference compound], the “Remaining percentage (%)” value in series [5] (0 min, 5 μM, 37° C.) was found to be 100.00%; in [5] (15 min), 81.24%; in [5] (30 min), 59.99%; in series [5] (60 min) it was 32.76%; in [5] (120 min), 7.75%; in series [6] (0 min, 5 μM, 37° C.) it was 100.00%. The “Remaining percentage (%)” value in series [6] (15 min) turned out to be 90.53%; in series [6] (30 min), 77.57%; in series [6] (60 min), 70.39%; in series [6] (120 min), 49.22%; in [7] (0 min, 5 μM, 37° C.), 100.00%; in series [7] (15 min) it was 101.04%. The “Remaining percentage (%)” value was determined as 87.98% in series [7] (30 min); 85.64% in series [7] (60 min); 66.64% in [7] (120 min); 100.00% in [8] (0 min, 5 μM, 37° C.); 69.89% in series [8] (15 min); 43.11% in series [8] (30 min). In addition, the results for the “Remaining percentage (%)” value in [8] (60 min) and in series [8] (120 min) were 15.28% and 2.03%, respectively. Moreover, the half-life – broadly, how long it takes for the measured level to halve – at 5 µM in series [5] (human) was 36.6 min; in series [6] (monkey), 121 min; in series [7] (dog), 203 min; in series [8], 21.8 min.
